Assay results: ChEMBL document CHEMBL1240489, “Discovery of N-{1-[3-(3-oxo-2,3-dihydrobenzo[1,4]oxazin-4-yl)propyl]piperidin-4-yl}-2-phenylacetamide (Lu AE51090): an allosteric muscarinic M1 receptor agonist with unprecedented selectivity and procognitive potential” (J Med Chem, 2010)
pEC50, pKi: −log10 of the molar value.

Columns and labels:
[1] = target: T1, Muscarinic acetylcholine receptor M1 (Homo sapiens) (UniProt P11229); test: Agonist activity at human muscarinic M1 receptor expressed in CHO-K1 cells assessed as increase of acetylcholine-induced calcium flux by FLIPR assay relative to acetylcholine; format: functional, cell-based
T1 sequence (whole entry): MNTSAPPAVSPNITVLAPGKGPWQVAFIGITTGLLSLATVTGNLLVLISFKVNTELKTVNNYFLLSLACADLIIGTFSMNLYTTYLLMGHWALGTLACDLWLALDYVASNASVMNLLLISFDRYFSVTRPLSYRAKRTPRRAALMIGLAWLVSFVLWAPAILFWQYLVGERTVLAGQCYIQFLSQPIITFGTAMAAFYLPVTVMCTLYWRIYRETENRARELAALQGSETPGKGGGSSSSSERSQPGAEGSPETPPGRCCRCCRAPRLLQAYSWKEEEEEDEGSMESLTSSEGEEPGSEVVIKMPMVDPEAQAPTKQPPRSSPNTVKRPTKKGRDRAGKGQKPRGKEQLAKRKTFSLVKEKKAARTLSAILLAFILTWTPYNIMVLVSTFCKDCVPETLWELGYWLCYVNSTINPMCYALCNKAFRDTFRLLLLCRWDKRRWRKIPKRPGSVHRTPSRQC

[2] = target: T2, Muscarinic acetylcholine receptor M1 (Homo sapiens, UniProt P11229)
T2 sequence (P11229 whole entry): T1 sequence (whole entry)

[3] = target: T3, Muscarinic acetylcholine receptor M2 (Homo sapiens) (UniProt P08172); test: Agonist activity at human muscarinic M2 receptor expressed in CHO-K1 cells coexpressing Galpha16 subunit assessed as increase of acetylcholine-induced calcium flux at 10 uM by FLIPR assay relative to acetylcholine; format: functional, cell-based
T3 sequence (whole entry): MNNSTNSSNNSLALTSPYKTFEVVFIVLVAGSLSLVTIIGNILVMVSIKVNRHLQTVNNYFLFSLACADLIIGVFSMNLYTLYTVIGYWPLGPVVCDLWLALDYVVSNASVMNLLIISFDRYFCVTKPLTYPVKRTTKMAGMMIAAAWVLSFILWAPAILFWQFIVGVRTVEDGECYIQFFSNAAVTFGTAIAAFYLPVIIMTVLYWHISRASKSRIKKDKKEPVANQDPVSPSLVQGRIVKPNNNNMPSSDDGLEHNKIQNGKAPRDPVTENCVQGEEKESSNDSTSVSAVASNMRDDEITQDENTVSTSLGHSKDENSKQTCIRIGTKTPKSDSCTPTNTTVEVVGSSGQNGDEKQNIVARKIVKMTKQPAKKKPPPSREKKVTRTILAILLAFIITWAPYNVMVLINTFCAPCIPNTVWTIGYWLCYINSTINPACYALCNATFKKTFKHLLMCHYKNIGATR

[4] = target: T4, Muscarinic acetylcholine receptor M3 (Homo sapiens, UniProt P20309); test: Agonist activity at human muscarinic M3 receptor expressed in BHK-21 cells assessed as increase of acetylcholine-induced calcium flux at 10 uM by FLIPR assay relative to acetylcholine; format: functional, cell-based
Target sequence in this assay (P20309 whole entry, looked up): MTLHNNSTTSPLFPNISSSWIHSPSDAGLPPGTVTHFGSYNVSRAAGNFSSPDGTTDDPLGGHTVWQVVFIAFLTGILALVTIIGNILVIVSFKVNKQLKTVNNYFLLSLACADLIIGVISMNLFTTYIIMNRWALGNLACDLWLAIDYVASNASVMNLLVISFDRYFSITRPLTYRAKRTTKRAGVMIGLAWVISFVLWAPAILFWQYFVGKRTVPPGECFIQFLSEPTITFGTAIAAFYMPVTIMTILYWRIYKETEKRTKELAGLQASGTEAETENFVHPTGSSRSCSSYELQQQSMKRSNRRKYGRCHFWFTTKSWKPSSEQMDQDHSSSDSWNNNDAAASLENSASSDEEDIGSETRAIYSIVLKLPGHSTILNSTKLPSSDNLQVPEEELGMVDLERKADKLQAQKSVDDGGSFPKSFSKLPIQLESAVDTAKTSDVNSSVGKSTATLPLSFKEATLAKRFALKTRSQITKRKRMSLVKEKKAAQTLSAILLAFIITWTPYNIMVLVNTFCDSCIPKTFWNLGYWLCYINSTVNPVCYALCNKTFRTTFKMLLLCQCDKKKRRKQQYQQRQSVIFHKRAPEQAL

[5] = target: T5, Muscarinic acetylcholine receptor M4 (Homo sapiens, UniProt P08173); test: Agonist activity at human muscarinic M4 receptor expressed in BHK-21 cells coexpressing Galpha16 subunit assessed as increase of acetylcholine-induced calcium flux by FLIPR assay; format: functional, cell-based
T5 sequence (P08173 whole entry): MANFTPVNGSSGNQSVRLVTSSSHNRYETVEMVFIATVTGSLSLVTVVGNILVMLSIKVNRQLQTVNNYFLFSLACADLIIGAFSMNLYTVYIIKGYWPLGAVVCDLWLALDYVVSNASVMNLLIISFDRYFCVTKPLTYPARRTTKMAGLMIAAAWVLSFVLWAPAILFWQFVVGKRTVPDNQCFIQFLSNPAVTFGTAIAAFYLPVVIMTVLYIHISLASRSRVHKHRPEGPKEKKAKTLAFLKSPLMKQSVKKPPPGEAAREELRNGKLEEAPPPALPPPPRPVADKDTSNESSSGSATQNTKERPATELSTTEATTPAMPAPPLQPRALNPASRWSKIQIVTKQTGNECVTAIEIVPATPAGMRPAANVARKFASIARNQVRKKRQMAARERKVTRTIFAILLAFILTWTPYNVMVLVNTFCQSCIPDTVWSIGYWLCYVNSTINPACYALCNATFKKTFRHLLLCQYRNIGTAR

[6] = target: T6, Muscarinic acetylcholine receptor M4 (Homo sapiens) (UniProt P08173); test: Agonist activity at human muscarinic M4 receptor expressed in BHK-21 cells coexpressing Galpha16 subunit assessed as increase of acetylcholine-induced calcium flux by FLIPR assay relative to acetylcholine; format: functional, cell-based
T6 sequence (whole entry): T5 sequence (P08173 whole entry)

[7] = target: T7, Muscarinic acetylcholine receptor M5 (Homo sapiens, UniProt P08912); test: Agonist activity at human muscarinic M5 receptor expressed in BHK-21 cells assessed as increase of acetylcholine-induced calcium flux by FLIPR assay; format: functional, cell-based
T7 sequence (P08912 whole entry): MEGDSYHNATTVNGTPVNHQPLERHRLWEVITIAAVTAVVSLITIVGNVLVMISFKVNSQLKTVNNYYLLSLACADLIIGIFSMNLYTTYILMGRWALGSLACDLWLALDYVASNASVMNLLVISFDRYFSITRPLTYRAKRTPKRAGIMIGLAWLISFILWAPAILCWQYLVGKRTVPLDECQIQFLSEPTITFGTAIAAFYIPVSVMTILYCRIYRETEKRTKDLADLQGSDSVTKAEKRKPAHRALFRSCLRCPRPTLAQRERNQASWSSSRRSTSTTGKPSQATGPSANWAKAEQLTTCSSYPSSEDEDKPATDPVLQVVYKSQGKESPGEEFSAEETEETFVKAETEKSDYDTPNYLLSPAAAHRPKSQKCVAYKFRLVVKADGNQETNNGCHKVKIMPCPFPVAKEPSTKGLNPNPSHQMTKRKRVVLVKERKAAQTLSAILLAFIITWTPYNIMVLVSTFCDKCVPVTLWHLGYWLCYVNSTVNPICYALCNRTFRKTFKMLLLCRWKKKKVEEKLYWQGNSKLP

[8] = target: T8, Muscarinic acetylcholine receptor M5 (Homo sapiens) (UniProt P08912); test: Agonist activity at human muscarinic M5 receptor expressed in BHK-21 cells assessed as increase of acetylcholine-induced calcium flux by FLIPR assay relative to acetylcholine; format: functional, cell-based
T8 sequence (whole entry): T7 sequence (P08912 whole entry)

[9] = target: T6, Muscarinic acetylcholine receptor M4 (Homo sapiens); test: Agonist activity at human muscarinic M4 receptor expressed in BHK-21 cells coexpressing Galpha16 subunit assessed as increase of acetylcholine-induced calcium flux at 10 uM by FLIPR assay relative to acetylcholine; format: functional, cell-based
[10] = target: T8, Muscarinic acetylcholine receptor M5 (Homo sapiens); test: Agonist activity at human muscarinic M5 receptor expressed in BHK-21 cells assessed as increase of acetylcholine-induced calcium flux at 10 uM by FLIPR assay relative to acetylcholine; format: functional, cell-based
[11] = target: T1, Muscarinic acetylcholine receptor M1 (Homo sapiens); test: Agonist activity at human muscarinic M1 receptor expressed in CHO-K1 cells assessed as increase of acetylcholine-induced calcium flux at 10 uM by FLIPR assay relative to acetylcholine; format: functional, cell-based
[12] = target: T9, Muscarinic acetylcholine receptor M2 (Homo sapiens, UniProt P08172); test: Displacement of [3H]-AFDX-384 from human muscarinic M2 receptor expressed in CHO-K1 cells; format: cell-based
T9 sequence (P08172 whole entry): T3 sequence (whole entry)

[13] = target: 5-hydroxytryptamine receptor 2C (Homo sapiens, UniProt P28335); test: Binding affinity to human 5HT2C receptor agonist site by radioligand displacement assay
[14] = target: Alpha-1A adrenergic receptor (Homo sapiens, UniProt P35348); test: Binding affinity to human adrenergic alpha1A receptor by radioligand displacement assay
[15] = target: Alpha-1B adrenergic receptor (Homo sapiens, UniProt P35368); test: Binding affinity to human adrenergic Alpha-1B receptor by radioligand displacement assay
[16] = target: Alpha-1D adrenergic receptor (Homo sapiens, UniProt P25100); test: Binding affinity to human adrenergic Alpha-1D receptor by radioligand displacement assay
[17] = target: T7, Muscarinic acetylcholine receptor M5; test: biochemical
Description: Displacement of [3H]-4-DAMP from human muscarinic M5 receptor expressed in BHK-21 cells

[18] = target: T4, Muscarinic acetylcholine receptor M3; test: Displacement of [3H]-4-DAMP from human muscarinic M3 receptor expressed in BHK-21 cells; format: cell-based
Target sequence in this assay (P20309 whole entry): as the sequence (P20309 whole entry, looked up) above

[19] = target: T4, Muscarinic acetylcholine receptor M3
Target sequence in this assay (P20309 whole entry): as the sequence (P20309 whole entry, looked up) above

[20] = tested on: Muscarinic acetylcholine receptor M1 (Homo sapiens), P11229 [Y381A]; test: Agonist activity at human muscarinic M1 receptor Y381A mutant expressed in CHO-K1 cells assessed as increase of acetylcholine-induced calcium flux by FLIPR assay relative to acetylcholine; format: functional, cell-based
[21] = target: Muscarinic acetylcholine receptor M1 (Homo sapiens, UniProt P11229, Y381A)
Sequence of Muscarinic acetylcholine receptor M1 (Homo sapiens, UniProt P11229, Y381A) (P11229 whole entry Y381A): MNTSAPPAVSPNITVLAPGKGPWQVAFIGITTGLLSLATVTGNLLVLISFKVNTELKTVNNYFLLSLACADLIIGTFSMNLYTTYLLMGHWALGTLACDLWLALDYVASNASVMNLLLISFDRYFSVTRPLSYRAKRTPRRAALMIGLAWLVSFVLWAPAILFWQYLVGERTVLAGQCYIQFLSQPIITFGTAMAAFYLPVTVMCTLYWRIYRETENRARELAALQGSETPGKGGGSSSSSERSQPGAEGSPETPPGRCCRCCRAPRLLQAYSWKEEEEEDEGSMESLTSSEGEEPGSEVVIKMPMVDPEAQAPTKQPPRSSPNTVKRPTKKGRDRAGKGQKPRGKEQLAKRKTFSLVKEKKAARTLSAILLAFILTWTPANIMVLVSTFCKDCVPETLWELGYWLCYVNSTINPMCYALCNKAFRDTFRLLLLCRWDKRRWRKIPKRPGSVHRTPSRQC

Sequence of Muscarinic acetylcholine receptor M1 (Homo sapiens), P11229 [Y381A] (P11229 whole entry Y381A): as above
Sequence of Alpha-1B adrenergic receptor (P35368 whole entry): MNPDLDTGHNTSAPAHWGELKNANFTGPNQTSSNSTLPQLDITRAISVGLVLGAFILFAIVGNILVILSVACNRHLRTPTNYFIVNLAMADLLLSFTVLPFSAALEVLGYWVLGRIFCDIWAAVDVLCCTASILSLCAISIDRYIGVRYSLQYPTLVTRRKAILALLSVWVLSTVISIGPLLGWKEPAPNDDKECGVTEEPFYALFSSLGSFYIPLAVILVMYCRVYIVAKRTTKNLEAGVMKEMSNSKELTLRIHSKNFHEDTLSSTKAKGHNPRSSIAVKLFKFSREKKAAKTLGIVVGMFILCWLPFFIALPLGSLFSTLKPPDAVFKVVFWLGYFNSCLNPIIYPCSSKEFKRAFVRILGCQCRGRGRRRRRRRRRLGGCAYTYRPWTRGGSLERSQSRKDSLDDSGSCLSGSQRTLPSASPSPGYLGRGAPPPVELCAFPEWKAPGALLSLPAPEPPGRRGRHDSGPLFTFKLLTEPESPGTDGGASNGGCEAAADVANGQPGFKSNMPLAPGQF
Sequence of Alpha-1A adrenergic receptor (P35348 whole entry): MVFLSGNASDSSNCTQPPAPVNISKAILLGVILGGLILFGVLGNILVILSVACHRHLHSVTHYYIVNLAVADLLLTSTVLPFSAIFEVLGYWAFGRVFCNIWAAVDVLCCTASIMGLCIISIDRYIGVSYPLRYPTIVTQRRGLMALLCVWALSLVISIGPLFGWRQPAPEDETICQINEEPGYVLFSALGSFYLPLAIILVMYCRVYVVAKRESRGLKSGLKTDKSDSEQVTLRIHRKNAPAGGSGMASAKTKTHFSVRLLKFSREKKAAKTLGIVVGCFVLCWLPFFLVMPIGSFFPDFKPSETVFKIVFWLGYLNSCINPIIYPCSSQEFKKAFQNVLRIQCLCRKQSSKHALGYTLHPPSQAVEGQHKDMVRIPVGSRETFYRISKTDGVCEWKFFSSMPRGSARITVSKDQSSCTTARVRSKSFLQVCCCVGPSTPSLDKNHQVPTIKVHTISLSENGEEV
Sequence of Alpha-1D adrenergic receptor (P25100 whole entry): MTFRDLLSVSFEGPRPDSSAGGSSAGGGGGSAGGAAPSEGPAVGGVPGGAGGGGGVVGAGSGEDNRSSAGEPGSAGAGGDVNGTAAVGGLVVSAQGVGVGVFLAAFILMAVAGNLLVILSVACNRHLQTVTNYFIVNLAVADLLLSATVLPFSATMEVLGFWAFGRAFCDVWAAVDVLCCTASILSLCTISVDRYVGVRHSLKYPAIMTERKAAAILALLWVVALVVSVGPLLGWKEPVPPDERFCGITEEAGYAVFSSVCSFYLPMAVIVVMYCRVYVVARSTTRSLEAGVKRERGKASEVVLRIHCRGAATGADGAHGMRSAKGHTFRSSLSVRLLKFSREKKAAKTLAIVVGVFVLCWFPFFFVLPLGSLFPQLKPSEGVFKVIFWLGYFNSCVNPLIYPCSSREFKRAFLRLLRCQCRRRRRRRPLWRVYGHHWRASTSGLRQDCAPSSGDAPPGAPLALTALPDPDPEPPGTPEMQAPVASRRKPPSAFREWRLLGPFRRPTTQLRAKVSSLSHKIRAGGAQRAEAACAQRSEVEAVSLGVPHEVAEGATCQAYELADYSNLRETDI
Sequence of 5-hydroxytryptamine receptor 2C (P28335 whole entry): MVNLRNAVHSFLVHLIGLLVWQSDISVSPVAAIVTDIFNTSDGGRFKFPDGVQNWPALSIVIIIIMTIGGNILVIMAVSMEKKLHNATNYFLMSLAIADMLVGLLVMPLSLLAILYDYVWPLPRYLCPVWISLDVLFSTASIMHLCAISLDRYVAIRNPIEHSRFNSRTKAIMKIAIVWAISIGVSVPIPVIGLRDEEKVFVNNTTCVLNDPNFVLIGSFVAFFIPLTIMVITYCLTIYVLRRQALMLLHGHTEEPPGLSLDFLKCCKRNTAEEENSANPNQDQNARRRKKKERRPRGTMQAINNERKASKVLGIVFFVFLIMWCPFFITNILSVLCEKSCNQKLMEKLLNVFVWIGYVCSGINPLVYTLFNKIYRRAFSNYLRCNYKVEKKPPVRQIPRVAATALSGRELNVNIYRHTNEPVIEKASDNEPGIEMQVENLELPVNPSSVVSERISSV

Row | SMILES | Emax [1] [%] | pEC50 [2] | further results
1 | COc1ccc2c(c1)N(CCCN1CCC(NC(=O)Cc3ccccc3)CC1)C(=O)CC2 | 83 | 6.92 | –
2 | CCC(=O)NC1CCN(CCCN2C(=O)CCc3ccc(F)cc32)CC1 | 83 | 7.70 | –
3 | O=C(Cc1ccccc1)NC1CCN(CCCN2C(=O)CCc3cc(F)ccc32)CC1 | 79 | 7.31 | –
4 | COc1ccc(CC(=O)NC2CCN(CCCN3C(=O)CCc4cc(F)c(F)cc43)CC2)cc1OC | 91 | 7.89 | Emax [3]: 2%; Emax [4]: 7%; pEC50 [5]: 6.52; Emax [6]: 48%; pEC50 [7]: 5.92; Emax [8]: 52%
5 | CCC(=O)NC1CCN(CCCN2C(=O)CCc3cccc(F)c32)CC1 | 78 | 6.51 | –
6 | CN(C(=O)Cc1ccccc1)C1CCN(CCCN2C(=O)COc3ccccc32)CC1 | 67 | 6.04 | –
7 | COc1cccc(CC(=O)NC2CCN(CCCN3C(=O)COc4ccccc43)CC2)c1 | 86 | 6.89 | Emax [3]: 0%; Emax [4]: 0%; Emax [9]: 3%; Emax [10]: 6%
8 | CCC(=O)NC1CCN(CCCN2C(=O)COc3ccccc32)CC1 | 78 | 7.57 | –
9 | O=C(Cc1ccccc1)NC1CCN(CCCN2C(=O)CCc3ccc(F)cc32)CC1 | 86 | 7.29 | –
10 | O=C(CCc1ccccc1)NC1CCN(CCCN2C(=O)COc3ccccc32)CC1 | 60 | 6.01 | –
11 | CCC(=O)NC1CCN(CCCN2C(=O)COc3cc(F)c(F)cc32)CC1 | 88 | 8.00 | –
12 | CC(=O)NC1CCN(CCCN2C(=O)COc3ccccc32)CC1 | 74 | 6.74 | –
13 | O=C(Cc1ccccc1)NC1CCN(CCCN2C(=O)CCc3cc(F)c(F)cc32)CC1 | 89 | 7.82 | –
14 | O=C(NC1CCN(CCCN2C(=O)COc3ccccc32)CC1)c1ccccc1 | – | – | Emax [11]: 8%
15 | Cc1ccccc1CN1CCC(N2CCC(n3c(=O)[nH]c4ccccc43)CC2)CC1 | 86 | – | Emax [4]: 1%; Emax [9]: 38%; Emax [10]: 5%; pKi [12]: 6.49; pKi [13]: 7.07; pKi [14]: 7.96; pKi [15]: 7.72; pKi [16]: 6.54; pKi [17]: 6.03
16 | COc1ccc2c(c1)CCC(=O)N2CCCN1CCC(NC(=O)Cc2ccccc2)CC1 | 84 | 6.25 | –
17 | O=C(Cc1ccccc1)NC1CCN(CCCN2C(=O)CCc3ccccc32)CC1 | 89 | 7.32 | –

Row | SMILES | Emax [1] [%] | pEC50 [2] | further results
18 | CCCCCCOc1nsnc1C1=CCCN(C)C1 [XANOMELINE] | 89 | – | Emax [3]: 9%; Emax [6]: 72%; Emax [8]: 60%; pKi [18]: 7.89; pEC50 [19]: 6.92
19 | Clc1ccc2c(c1)N=C(N1CCNCC1)c1ccccc1N2 [N-DESMETHYLCLOZAPINE] | 75 | 7.74 | Emax [3]: 3%; Emax [4]: 10%; Emax [6]: 12%; pEC50 [7]: 6.77; Emax [8]: 34%; pKi [12]: 6.60; pKi [18]: 7.05; Emax [20]: 72%; pEC50 [21]: 6.85; pKi [17]: 7.29
20 | O=C(Cc1ccccc1)NC1CCN(CCCN2C(=O)CSc3ccccc32)CC1 | 79 | 7.00 | –
21 | O=C(Cc1ccccc1)NC1CCN(CCCN2C(=O)CCc3c(F)cccc32)CC1 | 77 | 6.82 | –
22 | O=C(NC1CCN(CCCN2C(=O)COc3ccccc32)CC1)C1CCCCC1 | – | – | Emax [11]: 3%
23 | O=C(NC1CCN(CCCN2C(=O)COc3ccccc32)CC1)C1CCC1 | 37 | 6.80 | –
24 | O=C(Cc1ccccc1)NC1CCN(CCCN2C(=O)CCc3cccc(F)c32)CC1 | 75 | 6.54 | –
25 | CCC(=O)NC1CCN(CCCN2C(=O)CCc3c(F)cccc32)CC1 | 90 | 7.72 | –
26 | CC(=O)NC1CCN(CCCN2C(=O)CCc3cc(F)c(F)cc32)CC1 | 76 | 7.07 | –
27 | O=C(Cc1ccccc1)NC1CCN(CCCn2c(=O)oc3ccccc32)CC1 | 70 | 5.96 | –
28 | CCC(=O)NC1CCN(CCCN2C(=O)CCc3cc(F)ccc32)CC1 | 83 | 8.05 | –
29 | CC(C)C(=O)NC1CCN(CCCN2C(=O)COc3ccccc32)CC1 | 72 | 7.34 | –
30 | CCC(=O)NC1CCN(CCCN2C(=O)CCc3cc(F)c(F)cc32)CC1 | 87 | 7.70 | –
31 | O=C(NC1CCN(CCCN2C(=O)COc3ccccc32)CC1)C1CC1 | 74 | 6.96 | –
32 | O=C(NC1CCN(CCCN2C(=O)COc3ccccc32)CC1)C1CCCC1 | 41 | 6.46 | –
33 | CC(C)CC(=O)NC1CCN(CCCN2C(=O)COc3ccccc32)CC1 | – | – | Emax [11]: 21%
